Experiment [1] relates to HL60VCR acute myeloid leukemia cells. Description: Cell number and cell cycle in multidrug resistant cells. The class given is cell-based, human. To be noted: 2.5 µM and 5 µM. As for the experimental part: The following cell lines used in this study were obtained from ATCC: NSCLC (A549, CCL-185; H522, CRL-5810; H23, CRL-5800; H2126, CCL-256; H460, HTB-177), melanoma (A375M, CRL-1619), and breast cancer (MDA-MB-231, HTB-26). Cells were maintained in DMEM or RPMI media (Cellgro, Corning, NY, USA) supplemented with 10% fetal bovine serum (Gibco, Fisher Scientific, Hampton, NH, USA) and penicillin/streptomycin (Gibco, Fisher Scientific, Hampton, NH, USA) at 37 °C with 5% CO2 humidified incubator. Acute myeloid leukemia cells (AML, HL60; CCL240) were obtained from ATCC while vincristine resistant HL60 (HL60VCR) cells were a gift from Dr. Hong-Gang Wang (Penn State College of Medicine, Hershey, PA, USA) and both the cells were cultured in IMDM medium (HyClone, Washington, D.C., USA) with 10% FBS.
Figure S3. DJ4 was ineffective in multidrug resistant HL60VCR acute myeloid leukemia cells.
A. Endogenous expression of p-glycoprotein (P-gp) in HL60 and HL60VCR (multidrug resistant cells). β-Actin was used as internal control.
B. P-gp inhibitor cyclosporine A (CsA) treatment (2.5 µM) sensitized resistant cancer cells to DJ4. […] Number of cells were counted using MuseTM cell analyzer.
Statistical significance was analyzed by one-way ANOVA and Dunnett’s multiple comparison post-test. […]
C. […] The cells were treated at 2.5 µM and 5 µM concentrations and analyzed using flow cytometry. […]

In experiment [2] the test system is MDA-MB-231 breast cancer cells. Description: Live/dead cell count (Muse). The class given is cell-based, human. The settings on record: 24 h. How it is done:
Figure 2 DJ4 reduces cell survival and inhibits colony forming ability of the cancer cells. (A) Different NSCLC cells were plated in a 96-well plate to confluence and then treated for 72 h. Cytotoxicity was assessed by MTT assay. The error bars indicate SEM of triplicates. (B) To assess cytotoxicity of DJ4 in breast cancer cells, MDA-MB-231 cells were treated for 24 h with indicated concentrations of DJ4. Percentage of live cells were counted using Muse^TM Live/Dead reagent and analyzed by Muse^TM cell analyzer. Error bars indicate SEM. n = 2. * p < 0.05. (C) DJ4 inhibits colony forming ability of A549 cells treated for 48 h. After a 48-h treatment, cells were seeded with number of cells mentioned in the table and were allowed to grow and form colonies. At the end of 14 days, colonies were stained and counted. Percent surviving fraction was calculated. The figure is the representative of the replicates. (D) The data are summarized in the table and represent the average of three replicates. […]
MDA-MB-231 cells were treated for 24 h with 1 µM, 2.5 µM, 5 µM, and 10 µM concentrations of DJ4. […] Cell number and cell viability were analyzed using Muse^TM Cell Viability reagent and Muse^TM (Millipore, Inc. Burlington, MA, USA) cell analyzer as per the manufacturer’s instructions.

For the compound `O=C1N/C(=N\CCc2ccccc2)S/C1=C/c1c[nH]c2ncccc12` [DJ4], the “effect in multidrug resistant cells” value in experiment [1] is listed as “ineffective”. Further, the cell death in experiment [2] (MDA-MB-231, 1 µM) came out at 29%; in experiment [2] (MDA-MB-231, 10 µM), 47%.

(Values after publication PMC10458458, “Characterization of Anticancer Effects of the Analogs of DJ4, a Novel Selective Inhibitor of ROCK and MRCK Kinases” (Pharmaceuticals, 2023).)
